Key:
5-HT7 = molecular target: T1, 5-HT7 (Homo sapiens, UniProt P34969); assay: NIMH PDSP radioligand binding, 5-HT7; conditions: radioligand [3H]LSD, n=4
T1 construct: purchased NIMH Psychoactive Drug Screening Program (PDSP)

mice = assay: Rotarod test of minimal motor impairment; type: in vivo, mouse
Protocol: (§1) The rotarod test was performed just prior to the three seizure tests.
(§2) Probit analysis was used to analyse the efficacy and tolerability results obtained from the dose–response studies and to calculate the median effective (ED50) dose, the median toxic dose (TD50), and the 95% confidence interval.

[1] = Rotarod test of minimal motor impairment; type: in vivo, mouse; conditions: mouse, in vivo, ip; CF-1 mice of the MES test; probit analysis
Protocol: as §1, §2

5-HT1E = molecular target: T2, 5-HT1E (Homo sapiens, UniProt P28566); assay: NIMH PDSP radioligand binding, 5-HT1E; conditions: radioligand [3H]5-HT, n=4
T2 construct: purchased NIMH Psychoactive Drug Screening Program (PDSP)

hBGT1 Q299L = molecular target: T3, hBGT1 Q299L (Homo sapiens, UniProt P48065, Q299L); assay: [3H]GABA uptake at hBGT1 Q299L mutant in tsA201 cells; type: cell-based; conditions: data not shown
T3 construct: expressed in transfected cells; host or cells: tsA201 (transient)
Protocol: The HEK-293 and Flp-In CHO cell lines stably expressing mouse (m) and human (h) GATs, respectively, have been described previously and were cultured accordingly. The tsA201 cell line was used for transient expression while the MDCK II cell line express BGT1 endogenously. Both cell lines were cultured as described. tsA201 cells were transfected with DNA constructs (8 μg per 10 cm dish if not otherwise mentioned) using 40 μL PolyFect transfection reagent according to the manufacturer’s protocol (Qiagen, Venlo, Netherlands). The DNA constructs encoding hBGT1, hGAT1-3 [36], the mutated constructs hBGT1 Q299 and hGAT3 L314Q described previously, and hBGT Y453A were synthesized and sequence validated by Genscript (NJ, USA).
The [^3H]GABA competition uptake assay was performed as previously described. A minor change, however, was introduced for uptake in MDCK II cells, in which 100 nM [^3H]GABA was used for a 15 min incubation period at 37 °C instead of 30 nM [^3H]GABA and 3 min incubation. Studies related to the inhibition curves with GABA and BPDBA at hBGT1 were obtained both with and without the presence of 10 μM ATP during the [^3H]GABA uptake assay.
The [^3H]GABA uptake data was normalized to the percentage of total uptake in the individual experiments in the presence of the lowest compound concentration or no compound present. […]

M3 = molecular target: T4, M3 (Homo sapiens, UniProt P20309); assay: NIMH PDSP radioligand binding, M3
T4 construct: purchased NIMH Psychoactive Drug Screening Program (PDSP)

CF-1 mice = assay: Maximal electroshock (MES) test; type: in vivo, mouse; conditions: for #Protected/#Tested: 15 min
From the text: Male audiogenic-susceptible (AGS) Frings mice were obtained from an in-house breeding facility at the University of Utah (Salt Lake City, UT, USA). Male CF-1 mice for the maximal electroshock (MES) test and the subcutaneous pentylenetetrazol (s.c.PTZ) seizure threshold test were purchased from Charles River (Kingston, WA, USA). All mice were housed in a temperature, humidity, and light (on at 6:00 AM) controlled facility at the University of Utah with access to ad libitum food and water except during testing. All procedures were carried out at the University of Utah in concordance with the National Institutes of Health Guidelines for the Care and Use of Laboratory Animals and under approval from the University of Utah’s Institutional Animal Care and Use Committee. The mice were euthanized in accordance with Public Health Service policies on the humane care of laboratory animals. […] This is a model of generalised tonic–clonic seizures, and was conducted as described previously. In brief, a drop of anaesthetic/electrolyte solution (0.5% tetracaine hydrochloride in 0.9% saline) was applied to the cornea of each animal prior to placement of the silver-coated corneal electrodes. An alternating current of 50 mA (60 Hz) was delivered for 0.2 s to the cornea of the mouse using a Woodbury–Davenport stimulator. The supramaximal current applied to the cornea was sufficient to induce maximal tonic extension seizures in all non-treated mice. […] Those mice not displaying full hind limb tonic extension seizures were considered protected. Probit analysis was used to analyse the efficacy and tolerability results obtained from the dose–response studies and to calculate the median effective (ED50) dose, the median toxic dose (TD50), and the 95% confidence interval.

GABAA rat brain = assay: NIMH PDSP radioligand binding, GABAA rat brain; conditions: 10 μM; radioligand [3H]muscimol; n=4
Protocol: IC50 values in μM (Ki μM)^a. The targets in bold were inhibited by >35% at 10 μM.

M5 = molecular target: T5, M5 (Homo sapiens, UniProt P08912); assay: NIMH PDSP radioligand binding, M5
T5 construct: purchased NIMH Psychoactive Drug Screening Program (PDSP)

M2 = molecular target: T6, M2 (Homo sapiens, UniProt P08172); assay: NIMH PDSP radioligand binding, M2
T6 construct: purchased NIMH Psychoactive Drug Screening Program (PDSP)
T6 sequence (P08172 whole entry): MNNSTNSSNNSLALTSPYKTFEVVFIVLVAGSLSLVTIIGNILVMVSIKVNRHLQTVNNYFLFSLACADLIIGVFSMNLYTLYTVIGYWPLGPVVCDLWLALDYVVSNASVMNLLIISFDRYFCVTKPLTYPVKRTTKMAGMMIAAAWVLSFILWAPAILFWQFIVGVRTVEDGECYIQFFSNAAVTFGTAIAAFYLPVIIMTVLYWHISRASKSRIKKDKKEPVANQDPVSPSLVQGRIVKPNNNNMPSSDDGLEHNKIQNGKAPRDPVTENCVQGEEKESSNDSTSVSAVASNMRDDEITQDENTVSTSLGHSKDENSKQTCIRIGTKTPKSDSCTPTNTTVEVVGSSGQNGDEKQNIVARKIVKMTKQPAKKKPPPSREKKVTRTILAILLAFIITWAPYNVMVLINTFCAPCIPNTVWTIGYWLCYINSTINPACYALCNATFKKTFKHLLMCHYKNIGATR

T4 sequence (P20309 whole entry): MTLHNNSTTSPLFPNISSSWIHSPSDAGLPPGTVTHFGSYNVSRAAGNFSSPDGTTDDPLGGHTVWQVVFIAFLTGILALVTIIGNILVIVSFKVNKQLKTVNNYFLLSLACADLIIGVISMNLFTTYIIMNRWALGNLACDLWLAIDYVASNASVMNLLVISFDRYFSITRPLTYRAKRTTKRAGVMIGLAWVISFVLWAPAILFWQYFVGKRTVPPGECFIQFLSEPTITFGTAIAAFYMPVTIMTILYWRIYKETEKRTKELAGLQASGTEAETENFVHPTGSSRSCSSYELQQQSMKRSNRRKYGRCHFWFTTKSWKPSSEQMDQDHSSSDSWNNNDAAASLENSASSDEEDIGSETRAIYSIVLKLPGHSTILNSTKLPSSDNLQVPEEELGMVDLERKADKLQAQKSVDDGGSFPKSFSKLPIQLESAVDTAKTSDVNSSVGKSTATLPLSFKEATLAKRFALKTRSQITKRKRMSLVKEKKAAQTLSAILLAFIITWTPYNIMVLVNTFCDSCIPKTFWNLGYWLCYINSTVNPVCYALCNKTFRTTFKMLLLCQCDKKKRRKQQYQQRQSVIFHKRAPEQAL
T2 sequence (P28566 whole entry): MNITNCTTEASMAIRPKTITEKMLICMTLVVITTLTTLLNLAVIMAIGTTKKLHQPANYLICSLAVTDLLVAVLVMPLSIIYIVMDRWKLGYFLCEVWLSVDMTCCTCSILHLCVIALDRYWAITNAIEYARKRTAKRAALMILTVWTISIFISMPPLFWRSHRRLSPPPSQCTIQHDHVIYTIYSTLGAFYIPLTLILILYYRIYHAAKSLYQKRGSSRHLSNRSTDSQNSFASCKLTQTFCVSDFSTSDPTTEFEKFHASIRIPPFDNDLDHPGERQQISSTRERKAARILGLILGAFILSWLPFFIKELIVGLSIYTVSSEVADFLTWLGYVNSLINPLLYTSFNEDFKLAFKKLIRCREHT
T3 sequence (P48065 whole entry Q299L): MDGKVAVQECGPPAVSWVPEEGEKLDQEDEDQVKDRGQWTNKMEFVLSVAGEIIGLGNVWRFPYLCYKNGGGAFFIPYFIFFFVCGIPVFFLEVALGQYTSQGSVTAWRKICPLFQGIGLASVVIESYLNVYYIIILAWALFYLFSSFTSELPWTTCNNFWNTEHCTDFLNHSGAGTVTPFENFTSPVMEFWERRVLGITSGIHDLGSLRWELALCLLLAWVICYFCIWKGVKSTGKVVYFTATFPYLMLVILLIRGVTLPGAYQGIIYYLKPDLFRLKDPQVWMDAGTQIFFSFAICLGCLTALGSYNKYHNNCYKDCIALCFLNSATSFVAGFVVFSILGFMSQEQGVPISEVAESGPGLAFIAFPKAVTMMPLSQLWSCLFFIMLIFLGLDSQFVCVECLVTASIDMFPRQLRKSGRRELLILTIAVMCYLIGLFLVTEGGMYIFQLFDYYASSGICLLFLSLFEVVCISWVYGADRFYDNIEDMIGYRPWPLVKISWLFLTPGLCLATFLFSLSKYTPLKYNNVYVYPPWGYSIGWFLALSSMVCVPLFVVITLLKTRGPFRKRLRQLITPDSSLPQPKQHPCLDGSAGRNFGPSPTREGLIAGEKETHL
T5 sequence (P08912 whole entry): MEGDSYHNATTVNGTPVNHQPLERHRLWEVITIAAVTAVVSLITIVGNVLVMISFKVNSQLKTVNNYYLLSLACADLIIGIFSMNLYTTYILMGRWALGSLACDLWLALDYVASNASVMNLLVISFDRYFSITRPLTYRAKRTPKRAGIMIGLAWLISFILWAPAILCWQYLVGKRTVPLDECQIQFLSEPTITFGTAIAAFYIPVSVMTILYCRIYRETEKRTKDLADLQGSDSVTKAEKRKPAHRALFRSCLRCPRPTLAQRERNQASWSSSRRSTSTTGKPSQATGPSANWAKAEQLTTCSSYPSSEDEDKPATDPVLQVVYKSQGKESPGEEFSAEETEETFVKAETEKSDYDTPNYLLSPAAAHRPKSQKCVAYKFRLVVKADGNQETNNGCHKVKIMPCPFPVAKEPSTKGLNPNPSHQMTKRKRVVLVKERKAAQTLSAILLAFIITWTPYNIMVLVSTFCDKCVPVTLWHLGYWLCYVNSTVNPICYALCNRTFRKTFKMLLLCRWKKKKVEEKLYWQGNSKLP
T1 sequence (P34969 whole entry): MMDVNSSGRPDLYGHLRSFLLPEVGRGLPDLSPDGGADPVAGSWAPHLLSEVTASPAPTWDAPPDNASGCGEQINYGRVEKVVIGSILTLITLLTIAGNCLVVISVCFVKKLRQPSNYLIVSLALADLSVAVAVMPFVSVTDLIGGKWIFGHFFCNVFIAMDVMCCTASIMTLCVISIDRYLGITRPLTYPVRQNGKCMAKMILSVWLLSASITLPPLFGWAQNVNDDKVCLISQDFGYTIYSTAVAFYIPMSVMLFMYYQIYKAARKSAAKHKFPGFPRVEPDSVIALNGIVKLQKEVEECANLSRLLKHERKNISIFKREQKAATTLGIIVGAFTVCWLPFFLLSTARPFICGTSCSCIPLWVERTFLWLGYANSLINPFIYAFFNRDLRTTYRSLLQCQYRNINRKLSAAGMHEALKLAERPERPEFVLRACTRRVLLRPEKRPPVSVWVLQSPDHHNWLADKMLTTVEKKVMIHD

For `Cc1ccsc1C(=CCCN(C)[C@H]1CCCC[C@H]1C(=O)O)c1sccc1C` [SBV2-114, (1R,2S)-2-((4,4-bis(3-methylthiophen-2-yl)but-3-en-yl)(methyl)amino)cyclohexanecarboxylic acid], the inhibition at 10 µM (5-HT7) was 14.1%, the “#Motor impairment/#Tested” value (mice; CF-1 mice, prior to MES, 50 mg/kg i.p., 15 min) was 0/3 and the “#Motor impairment/#Tested” value (mice; CF-1 mice, prior to MES, 100 mg/kg i.p., 15 min) was 0/4. The “#Motor impairment/#Tested” value (mice; CF-1 mice, prior to MES, 125 mg/kg i.p., 15 min) was 0/7, the “#Motor impairment/#Tested” value (mice; CF-1 mice, prior to MES, 150 mg/kg i.p., 15 min) was 2/6 and the “#Motor impairment/#Tested” value (mice; CF-1 mice, prior to MES, 200 mg/kg i.p., 15 min) was 3/4. For the same molecule, the “#Motor impairment/#Tested” value (mice; CF-1 mice, prior to s.c.PTZ, 150 mg/kg i.p., 30 min) was 0/8, the “#Motor impairment/#Tested” value (mice; Frings mice, 50 mg/kg i.p., 15 min) was 0/3 and the “#Motor impairment/#Tested” value (mice; Frings mice, 50 mg/kg i.p., 30 min) was 0/3. For the same molecule, the “#Motor impairment/#Tested” value (mice; Frings mice, 50 mg/kg i.p., 60 min) was 0/3, the “#Motor impairment/#Tested” value (mice; Frings mice, 50 mg/kg i.p., 120 min) was 0/3 and the “#Motor impairment/#Tested” value (mice; Frings mice, 120 mg/kg i.p., 30 min) was 0/4. For the same molecule, the “#Motor impairment/#Tested” value (mice; Frings mice, 120 mg/kg i.p., 60 min) was 0/4, the “#Motor impairment/#Tested” value (mice; Frings mice, 120 mg/kg i.p., 120 min) was 0/4 and the “#Motor impairment/#Tested” value (mice; Frings mice, 120 mg/kg i.p., 240 min) was 0/4. The TD50 at 15 min [1] was 163 mg/kg, the inhibition at 10 µM (5-HT1E) was -12.9% and the “inhibition profile and activity at hBGT1 Q299L” value (hBGT1 Q299L) was “clear biphasic inhibition profile and no significant altered activity”. The inhibition at 10 µM (M3) was 55.4%, the “#Protected/#Tested” value (CF-1 mice; 50 mg/kg i.p.) was 0/3 and the “#Protected/#Tested” value (CF-1 mice; 100 mg/kg i.p.) was 0/4. The “#Protected/#Tested” value (CF-1 mice; 125 mg/kg i.p.) was 2/7, the “#Protected/#Tested” value (CF-1 mice; 150 mg/kg i.p.) was 4/6 and the “#Protected/#Tested” value (CF-1 mice; 200 mg/kg i.p.) was 4/4. For the same molecule, the ED50 (CF-1 mice; Mus musculus, ip) was 139 mg/kg, the “% inhibition” value (GABAA rat brain) was -1.5% and the inhibition at 10 µM (M5) was 23.5%. The inhibition at 10 µM (M2) was -1.9%.
